Assay results from patent US11718600B2, “1,2,3-triazole inhibitors of P97 AAA ATPase activity” (University of Pittsburgh—Of the Commonwealth System of …, priority 2018, dated 2023).

What follows are molecules tested against p97 (Homo sapiens, UniProt P55072) (assay: BioMol Green ATPase assay). Conditions: 200 μM ATP.
Assay type: biochemical
Text: Biomol Green (Enzo) is a […] from a biochemical reaction. Because of its high sensitivity, the assay is suitable for monitoring enzyme activities at very early substrate conversions requiring very low amount of enzymes.
The assay procedure used may be the same as in Zhang et al., “Altered cofactor regulation with disease-associated p97/VCP mutations,” Proc. Natl. Acad. Sci. USA, 112(14), E1705-E1714 (2015).
The BioMol Green ATPase assay procedure used was that which was disclosed in Zhang, et al., “Altered cofactor regulation with disease-associated p97/VCP mutations,” Proc. Natl. Acad. Sci. USA, 112(14), E1705-E1714 (2015). Compounds also show activity in a cell-based assay such as the ubiquitin assay.

Chain of p97 (P55072 whole entry): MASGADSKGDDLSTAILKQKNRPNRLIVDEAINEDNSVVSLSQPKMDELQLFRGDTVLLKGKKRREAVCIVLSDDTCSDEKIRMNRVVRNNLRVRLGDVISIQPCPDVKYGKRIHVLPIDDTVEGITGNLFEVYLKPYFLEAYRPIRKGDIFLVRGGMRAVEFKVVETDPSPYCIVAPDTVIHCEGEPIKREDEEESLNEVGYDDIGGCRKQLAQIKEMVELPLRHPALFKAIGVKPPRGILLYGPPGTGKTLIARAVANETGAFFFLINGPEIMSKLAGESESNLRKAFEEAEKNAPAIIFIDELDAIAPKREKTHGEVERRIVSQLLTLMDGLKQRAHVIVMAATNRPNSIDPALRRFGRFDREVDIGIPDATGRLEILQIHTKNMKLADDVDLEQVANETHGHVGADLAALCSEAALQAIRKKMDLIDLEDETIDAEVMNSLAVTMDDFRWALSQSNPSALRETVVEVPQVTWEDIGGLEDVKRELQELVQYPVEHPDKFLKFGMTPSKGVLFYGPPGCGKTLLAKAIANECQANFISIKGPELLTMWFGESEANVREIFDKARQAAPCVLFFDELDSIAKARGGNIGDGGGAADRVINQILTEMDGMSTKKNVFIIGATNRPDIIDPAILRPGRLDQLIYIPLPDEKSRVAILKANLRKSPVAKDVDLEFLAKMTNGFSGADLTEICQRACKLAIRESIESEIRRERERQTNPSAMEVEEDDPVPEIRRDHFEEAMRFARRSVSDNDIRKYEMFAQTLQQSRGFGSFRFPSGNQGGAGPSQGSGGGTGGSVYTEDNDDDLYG

| IC50 | Structure (SMILES) |
| --- | --- |
| < 0.05 µM | CC(C)(C)OC(=O)N1CCN(C(=O)Cn2ncc(-c3cc(F)c(OCc4nnc(SC5C=CCCC5)n4-c4cccnc4)cc3F)n2)CC1 (centres unmarked) [Entry 1] |
| < 1 µM | CC(C)(C)OC(=O)N1CCN(C(=O)Cn2cc(-c3cc(F)c(OCc4nnc(SC5C=CCCC5)n4-c4cccnc4)cc3F)nn2)CC1 (centres unmarked) [Entry 2] |
| < 0.05 µM | [2H]C1([2H])C([2H])([2H])C([2H])([2H])C([2H])(Sc2nnc(COc3cc(F)c(-c4cnn(CC(=O)N5CCN(C(=O)OC(C)(C)C)CC5)n4)cc3F)n2-c2cccnc2)C1([2H])[2H] [Entry 3] |
| < 1 µM | [2H]C1([2H])C([2H])([2H])C([2H])([2H])C([2H])(Sc2nnc(COc3cc(F)c(-c4cn(CC(=O)N5CCN(C(=O)OC(C)(C)C)CC5)nn4)cc3F)n2-c2cccnc2)C1([2H])[2H] [Entry 4] |
| < 0.05 µM | [2H]C1([2H])C([2H])([2H])C([2H])([2H])C([2H])(Sc2nnc(COc3cc(F)c(-c4cnn(CC(=O)N5CCNCC5)n4)cc3F)n2-c2cccnc2)C1([2H])[2H] [Entry 5] |
| < 1 µM | [2H]C1([2H])C([2H])([2H])C([2H])([2H])C([2H])(Sc2nnc(COc3cc(F)c(-c4cn(CC(=O)N5CCNCC5)nn4)cc3F)n2-c2cccnc2)C1([2H])[2H] [Entry 6] |
| < 0.05 µM | CN1CCN(C(=O)Cn2ncc(-c3cc(F)c(OCc4nnc(SC5C=CCCC5)n4-c4cccnc4)cc3F)n2)CC1 (centres unmarked) [Entry 7] |
| < 0.1 µM | CC(C)(C)OC(=O)N1CCN(CCn2ncc(-c3cc(F)c(OCc4nnc(SC5C=CCCC5)n4-c4cccnc4)cc3F)n2)CC1 (centres unmarked) [Entry 8] |
| < 0.05 µM | OCCn1ncc(-c2cc(F)c(OCc3nnc(SC4C=CCCC4)n3-c3cccnc3)cc2F)n1 (centres unmarked) [Entry 9] |
| < 0.05 µM | CN1CCC(NC(=O)OCCn2ncc(-c3cc(F)c(OCc4nnc(SC5C=CCCC5)n4-c4cccnc4)cc3F)n2)CC1 (centres unmarked) [Entry 10] |
| < 0.05 µM | CNC(=O)OCCn1ncc(-c2cc(F)c(OCc3nnc(S[C@H]4C=CCCC4)n3-c3cccnc3)cc2F)n1 [Entry 11] |
| < 0.1 µM | CN1CCN(C(=O)OCCn2ncc(-c3cc(F)c(OCc4nnc(S[C@H]5C=CCCC5)n4-c4cccnc4)cc3F)n2)CC1 [Entry 12] |
| < 0.05 µM | CN1CCN(C(=O)Cn2ncc(-c3cc(F)c(OCc4nnc(S[C@H]5C=CCCC5)n4-c4cccnc4)cc3F)n2)CC1 [Entry 13] |
| < 1 µM | Fc1cc(-c2cnn(CCOCc3ccccc3)n2)c(F)cc1OCc1nnc(SC2C=CCCC2)n1-c1cccnc1 (centres unmarked) [Entry 14] |
| < 0.05 µM | OCCn1ncc(-c2cc(F)c(OCc3nnc(S[C@H]4C=CCCC4)n3-c3cccnc3)cc2F)n1 [Entry 15] |
| < 1 µM | CC(C)(C)OC(=O)N1CCN(C(=O)Cn2ncc(-c3cc(F)c(OCc4nnc(S[C@@H]5C=CCCC5)n4-c4cccnc4)cc3F)n2)CC1 [Entry 16] |
| < 0.05 µM | CC(C)(C)OC(=O)N1CCN(C(=O)Cn2ncc(-c3cc(F)c(OCc4nnc(S[C@H]5C=CCCC5)n4-c4cccnc4)cc3F)n2)CC1 [Entry 17] |
| < 1 µM | OCCn1cc(-c2cc(F)c(OCc3nnc(SC4C=CCCC4)n3-c3cccnc3)cc2F)nn1 (centres unmarked) [Entry 18] |
| < 1 µM | CN1CCC(NC(=O)OCCn2cc(-c3cc(F)c(OCc4nnc(SC5C=CCCC5)n4-c4cccnc4)cc3F)nn2)CC1 (centres unmarked) [Entry 19] |
| < 0.05 µM | COC(=O)Cn1ncc(-c2cc(F)c(OCc3nnc(SC4C=CCCC4)n3-c3cccnc3)cc2F)n1 (centres unmarked) [Entry 20] |
| < 0.1 µM | O=C(O)Cn1ncc(-c2cc(F)c(OCc3nnc(SC4C=CCCC4)n3-c3cccnc3)cc2F)n1 (centres unmarked) [Entry 21] |
| < 0.05 µM | CN1CCC(NC(=O)Cn2ncc(-c3cc(F)c(OCc4nnc(SC5C=CCCC5)n4-c4cccnc4)cc3F)n2)CC1 (centres unmarked) [Entry 22] |
| < 0.05 µM | COC(=O)Cn1ncc(-c2cc(F)c(OCc3nnc(S[C@H]4C=CCCC4)n3-c3cccnc3)cc2F)n1 [Entry 23] |
